The OPERA property sets (Mansouri et al. 2018)

Conditions: not given

Structure (SMILES) | boiling point [°C] | log10 vapour pressure (mmHg) | melting point [°C] | log10 Koc (L/kg) | ready biodegradability | log10 Koa | log10 biodegradation half-life (days) | log10 Henry constant (atm·m³/mol)
CCCCn1cccc1 | 170 |  |  |  |  |  |  | 
CCOC(=O)C(C(C)=O)C(C)C (configuration not stated) | 201 |  |  |  |  |  |  | 
Clc1nc(Cl)c(Cl)c(Cl)c1Cl |  | -1.85 | 126 |  |  |  |  | 
Cc1ccccc1CBr | 217 |  | 21 |  |  |  |  | 
Nc1ccc(-c2ccc(N)c(Cl)c2)cc1Cl | 368 |  | 132 | 4.35 | not readily biodegradable |  |  | 
C=CCCCC | 63.4 | 2.26 | -140 |  | readily biodegradable | 2.41 |  | 
Cc1cccc2cc3c(ccc4ccccc43)cc12 |  |  | 156 |  |  |  |  | 
CCC1CCC(=O)O1 (configuration not stated) | 216 |  | -18 |  |  |  |  | 
CCCC(=O)c1ccccc1 | 228 |  | 12 |  |  |  |  | 
CCCCCCCCCCCCCCCC | 287 | -2.84 | 18.1 |  | not readily biodegradable |  | 1.23 | 
CC(=O)c1c(C)c([N+](=O)[O-])c(C(C)(C)C)c([N+](=O)[O-])c1C |  |  | 136 |  |  |  |  | 
CC(C)(C#N)Nc1nc(Cl)nc(NC2CC2)n1 |  |  | 170 |  |  |  |  | 
Nc1ccc(S(=O)(=O)Nc2nccs2)cc1 |  |  | 189 |  |  |  |  | 
CN(C)c1ccccc1C(=O)O |  |  | 72 |  |  |  |  | 
CCOC(=O)CCC(=O)CC1(O)C2(Cl)C3(Cl)C4(Cl)C(Cl)(Cl)C5(Cl)C3(Cl)C1(Cl)C5(Cl)C42Cl (configuration not stated) |  |  | 91 |  |  |  |  | 
ClCc1ccccc1CCl | 240 |  | 55 |  |  |  |  | 
CC(C)(C)c1cccc(C(C)(C)C)c1O | 253 |  | 39 |  | not readily biodegradable |  |  | 
CC(=O)Oc1ccc(C(=O)O)cc1 |  |  | 192 |  |  |  |  | 
Clc1ccc2ccc(Cl)nc2c1 |  |  | 120 |  |  |  |  | 
O=CNC1CCCCC1 | 260 |  | 39.5 |  |  |  |  | 
CC=CCCCCC | 124 | 1.21 | -80 |  |  |  |  | 
OCCC1CCCC1 | 183 |  |  |  |  |  |  | 
CC(Oc1ccc(Cl)cc1Cl)C(=O)O (configuration not stated) |  | -6.73 | 122 | 2.23 |  |  |  | 
O=C(O)Cc1c(Cl)ccc(Cl)c1Cl |  |  | 161 | 1.8 |  |  |  | 
N#CCc1cccc([N+](=O)[O-])c1 |  |  | 63 |  |  |  |  | 
OCCN(CCO)CCO | 335 | -5.44 | 20.5 |  | not readily biodegradable |  |  | 

Structure (SMILES) | boiling point [°C] | log10 vapour pressure (mmHg) | melting point [°C] | log10 Koc (L/kg) | ready biodegradability | log10 Koa | log10 biodegradation half-life (days) | log10 Henry constant (atm·m³/mol)
C=CCC(C)C | 53.9 | 2.43 | -154 |  | not readily biodegradable |  |  | 
CC(=O)c1cc(C)c(C)cc1C | 246 |  | 10.5 |  |  |  |  | 
CCCSP(=O)(OCC)Oc1cnn(-c2ccc(Cl)cc2)c1 (configuration not stated) |  | -7.92 |  |  |  |  |  | 
CC(=O)Nc1ccc(CC(=O)O)cc1 |  |  | 173 |  |  |  |  | 
C=C(Cl)CCl | 94 | 1.79 |  |  |  |  |  | 
CNOC |  | 2.58 |  |  |  |  |  | 
Nc1ccc(CCc2ccc(N)cc2)cc1 |  |  | 137 |  |  |  |  | 
CCCc1ccc(C(=O)O)cc1 |  |  | 143 |  |  |  |  | 
C#CC(C)(CC)OC(=O)c1ccccc1C(=O)O (configuration not stated) |  |  | 97 |  |  |  |  | 
CS(=O)(=O)c1ccccc1 |  |  | 86 |  |  |  |  | 
CCCCOC(=O)c1ccc(N)cc1 |  |  | 58 |  |  |  |  | 
CC(C)(Cl)Br | 95 |  |  |  |  |  |  | 
O=C1C(Br)=CC(=NCl)C=C1Br |  |  | 83 |  |  |  |  | 
CCC(C)OC(=O)CC(C)=O (configuration not stated) |  |  |  |  | readily biodegradable |  |  | 
O=C(O)COc1ccc2ccccc2c1 |  |  | 156 |  |  |  |  | 
CC(=O)OCCOCCOC(C)=O | 200 |  | 18 |  |  |  |  | 
CCCCCCCCCCCC[N+](C)(C)CCOc1ccccc1.[Br-] |  |  | 112 |  |  |  |  | 
COc1cccc(CO)c1 | 252 |  |  |  |  |  |  | 
O=C(O)c1cccc([N+](=O)[O-])c1Cl |  |  | 184 |  |  |  |  | 
CCC(=O)OC(C)CC (configuration not stated) | 133 |  |  |  |  |  |  | 
CC(C)c1cccc(C(C)C)c1 | 203 | -0.406 | -63.1 |  |  |  |  | 
Cc1cccc2cc[nH]c12 | 266 |  | 85 |  |  |  |  | 
NCc1ccccc1Sc1ccccc1CO |  |  | 97 |  |  |  |  | 
N#CCN |  |  | 101 |  |  |  |  | 
Cl.NCC(F)(F)F |  |  | 195 |  |  |  |  | 
CC(C)SC(C)C | 120 | 1.28 | -78.1 |  |  |  |  | -2.48

Structure (SMILES) | boiling point [°C] | log10 vapour pressure (mmHg) | melting point [°C] | log10 Koc (L/kg) | ready biodegradability | log10 Koa | log10 biodegradation half-life (days) | log10 Henry constant (atm·m³/mol)
N#Cc1cc(F)c(F)c(F)c1F | 164 |  |  |  |  |  |  | 
O=C(O)c1ccccc1Nc1cccc(C(F)(F)F)c1 |  |  | 134 |  |  |  |  | 
FC(F)(F)C(F)(F)C(F)(F)C(F)(F)C(F)(F)F | 29.2 |  | -100 |  |  |  |  | 
CCCC(C)(C)CCC | 135 |  |  |  |  |  |  | 
CC(C)[C@@H]1CC[C@@H](C)[C@H](O)C1 | 218 |  |  |  |  |  |  | 
Cc1cc(O)ccc1Cl | 235 | -1.3 | 67 |  | readily biodegradable |  |  | 
Cc1ccccc1CO | 224 |  | 38 |  |  |  |  | 
COC(=O)[C@]1(C)CCC[C@@]2(C)[C@H]1CC=C1C=C(C(C)C)CC[C@@H]12 | 362 |  |  |  |  |  |  | 
CN(C)c1cccc(N)c1 | 270 |  |  |  |  |  |  | 
COCCCN | 118 |  |  |  | not readily biodegradable |  |  | 
FC(F)(F)C1(F)C(F)(F)C(F)(F)C(F)(F)C(F)(F)C1(F)C(F)(F)F (configuration not stated) |  |  |  |  | not readily biodegradable |  |  | 
CCCOc1cc(N)ccc1C(=O)OCCN(CC)CC.Cl |  |  | 149 |  |  |  |  | 
CN1C(=O)C(C)(C2=CCCCC2)C(=O)N=C1O (configuration not stated) |  |  | 146 |  |  |  |  | 
COC(=O)[C@H]1[C@H]2C[C@@H]3c4[nH]c5cc(OC)ccc5c4CCN3C[C@H]2C[C@@H](OC(=O)c2cc(OC)c(OC)c(OC)c2)[C@@H]1OC |  |  | 264 |  |  |  |  | 
CCSC(=O)SCC | 197 |  |  |  |  |  |  | 
O=C(O)c1c(F)c(F)cc(F)c1F |  |  | 151 |  |  |  |  | 
CC(C)[C@@H](N)C(=O)O |  |  | 315 |  |  |  |  | 
CN=C=O | 39.5 | 2.54 | -45 |  |  |  |  | 
O=[N+]([O-])c1ccc(/C=C/c2cccc(CO)n2)o1 |  |  | 170 |  |  |  |  | 
C1CCSC1 | 121 | 1.26 | -96.1 |  |  |  |  | 
Oc1ccc(Cc2ccc(O)cc2)cc1 |  |  | 162 |  | not readily biodegradable |  |  | 
CCC(C1CCCCC1)C1CCCCC1 | 284 |  | -23.5 |  |  |  |  | 
CC1=CCc2ccccc21 | 198 |  |  |  |  |  | 0.477 | 
O=C(O)COc1ccc(Cl)c(Cl)c1 |  |  | 139 |  |  |  |  | 
CC(=O)Oc1ccc2c3c1O[C@H]1[C@@H](OC(C)=O)C=C[C@H]4[C@@H](C2)N(C)CC[C@@]341 |  | -9.12 | 173 |  |  |  |  | 
Cc1cccc(O)c1C(=O)O |  |  | 173 |  |  |  |  | 

Structure (SMILES) | boiling point [°C] | log10 vapour pressure (mmHg) | melting point [°C] | log10 Koc (L/kg) | ready biodegradability | log10 Koa | log10 biodegradation half-life (days) | log10 Henry constant (atm·m³/mol)
CS(=O)(=O)c1ccc2c(c1)N(CCCN1CCC(C(N)=O)CC1)c1ccccc1S2 |  |  | 170 |  |  |  |  | 
CC(C)(C)c1cc([N+](=O)[O-])cc([N+](=O)[O-])c1O |  |  | 126 |  |  |  |  | 
Cc1ccc2cc3c(ccc4ccccc43)cc2c1 |  |  | 152 |  |  |  |  | 
CC[C@@H](CO)NC(=O)[C@@H]1C=C2c3cccc4[nH]cc(c34)C[C@H]2N(C)C1 |  |  | 172 |  |  |  |  | 
Cc1c(O)cc2c(c1C)OC(C)(CCCC(C)CCCC(C)CCCC(C)C)CC2 (configuration not stated) |  |  | -3 |  |  |  |  | 
C=CCC1(CC(=C)Br)C(=O)NC(=O)NC1=O |  |  | 168 |  |  |  |  | 
CCNc1cccc(O)c1 |  |  | 62 |  |  |  |  | 
Clc1cc2cc(Cl)c(Cl)cc2cc1Cl |  |  |  |  |  | 8.45 |  | 
CCOc1ccccc1C | 184 |  |  |  |  |  |  | 
COc1ccc(NC(C)=O)cc1Cl |  |  |  | 1.95 |  |  |  | 
ClCBr | 68 | 2.15 | -87.9 |  | not readily biodegradable |  |  | 
Cn1c(=S)sc2ccccc21 | 335 |  | 90 |  |  |  |  | 
N#CCCCCl | 192 |  |  |  |  |  |  | 
O=S(=O)(O)C(F)(F)C(F)(F)C(F)(F)C(F)(F)F | 211 |  |  |  |  |  |  | 
Nc1ccc(Cl)c(C(=O)O)c1 |  |  | 188 |  |  |  |  | 
O=C(Cl)c1ccccc1Br | 243 |  | 11 |  |  |  |  | 
CCCCCOCC | 118 |  |  |  |  |  |  | 
CC1=C[C@H]2O[C@@H]3[C@H](O)C[C@](C)([C@@]2(CO)[C@H](O)C1=O)[C@]31CO1 |  |  | 152 |  |  |  |  | 
CCCCOC(=O)c1ccccc1C(=O)O |  |  | 73.5 |  |  |  |  | 
CCC(C)(C)OC(N)=O |  |  | 86 |  |  |  |  | 
CCN1CCCCC1 | 131 |  |  |  |  |  |  | 
COc1ccccc1N | 224 | -1.1 | 6.2 |  | readily biodegradable |  |  | 
c1ccc2c(c1)Cc1cc3ccccc3cc1-2 |  | -7.26 | 212 |  |  |  |  | 
O=C(OC1CCCCC1)C(=O)OC1CCCCC1 |  |  | 43.5 |  |  |  |  | 
Oc1ccc(Cl)c(O)c1 |  |  | 107 |  | not readily biodegradable |  |  | 

Same assay, conditions: fish

Structure (SMILES) | log10 BCF | log10 biotransformation half-life (days)
Nc1ccc(-c2ccc(N)c(Cl)c2)cc1Cl | 2.16 | -0.13
Clc1cc(-c2c(Cl)c(Cl)c(Cl)c(Cl)c2Cl)c(Cl)c(Cl)c1Cl |  | 2.68
CCCCCCCCCCCCCCCC | 3.7 | 
OCCN(CCO)CCO | 0.59 | 
Clc1ccc(Cl)c2ccccc12 | 3.75 | 2.37
CC(C)c1cccc(C(C)C)c1 | 3.28 | 0.56
Brc1ccc(Oc2cc(Br)c(Br)c(Br)c2)cc1Br | 6.43 | 
Clc1cc(Cl)c(Cl)c(-c2ccccc2Cl)c1 |  | 2.8
Cc1cc(O)ccc1Cl | 0.93 | -1.28
ClCBr | 0.6 | -0.74
c1ccc2c(c1)Cc1cc3ccccc3cc1-2 |  | -0.39
